Patent US20250230193A1, “CYCLIC COMPOUND HAVING SELECTIVE KRAS INHIBITORY EFFECT ON HRAS AND NRAS” (CHUGAI SEIYAKU KABUSHIKI KAISHA, priority 2022, published 2025)
Where a SMILES comes first, the peptide text is derived from it. Bridges are numbered along the chain shown (N, C = ends). [ ]: non-standard residue; d: D form. The star is where a group is joined. hPhe(3-Cl-4-CF3) = N[C@@H](CCc1ccc(C(F)(F)F)c(Cl)c1)C(=O)O; NPrPhe(4-CF3) = CCCN[C@@H](Cc1ccc(C(F)(F)F)cc1)C(=O)O; NMePhe(4-F) = CN[C@@H](Cc1ccc(F)cc1)C(=O)O; NMeGly(cPent) = CN[C@H](C(=O)O)C1CCCC1; Pro(4S-Me) = C[C@@H]1CN[C@H](C(=O)O)C1; Hyp = O=C(O)[C@@H]1C[C@@H](O)CN1; NMeD = CN[C@@H](CC(=O)O)C(=O)O; NMeL = CN[C@@H](CC(C)C)C(=O)O; Morpholide = C1CN(*)CCO1; Ac5c = NC1(C(=O)O)CCCC1; Aze = O=C(O)[C@@H]1CCN1; Sar = CNCC(=O)O

Legend:
[1] = target: GDP-bound HRAS wild-type protein (Homo sapiens, UniProt P01112); assay: Binding to HRAS by surface plasmon resonance (SPR), Single Cycle Kinetics
GDP-bound HRAS wild-type protein, sequence (P01112 whole entry): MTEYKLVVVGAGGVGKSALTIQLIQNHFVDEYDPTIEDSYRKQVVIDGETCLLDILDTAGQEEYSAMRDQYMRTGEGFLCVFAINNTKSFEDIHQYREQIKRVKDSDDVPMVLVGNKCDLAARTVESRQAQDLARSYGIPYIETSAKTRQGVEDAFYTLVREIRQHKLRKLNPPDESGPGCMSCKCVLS

[2] = target: GDP-bound NRAS wild-type protein (Homo sapiens, UniProt P01111); assay: Binding to NRAS by surface plasmon resonance (SPR), Single Cycle Kinetics
GDP-bound NRAS wild-type protein, sequence (P01111 whole entry): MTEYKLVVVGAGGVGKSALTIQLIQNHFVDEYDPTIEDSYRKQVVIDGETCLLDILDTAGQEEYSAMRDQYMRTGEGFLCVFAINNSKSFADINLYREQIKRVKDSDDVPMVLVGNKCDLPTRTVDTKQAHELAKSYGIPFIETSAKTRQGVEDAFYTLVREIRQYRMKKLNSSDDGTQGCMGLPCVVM

[3] = KD ratio, GDP-bound HRAS wild-type vs GDP-bound KRAS wild-type, SPR
[4] = KD ratio, GDP-bound NRAS wild-type vs GDP-bound KRAS wild-type, SPR

CCC[C@@H]1C[C@H]2C(=O)NC3(CCC3)C(=O)N(C)[C@@H](C3CCCC3)C(=O)N(C)[C@H](C(=O)N(C)C)CC(=O)N(C)[C@@H](CC)C(=O)N[C@@H]([C@@H](C)CC)C(=O)N(C)CC(=O)N(C)[C@H]3C/C=C\CCN(C3=O)[C@@H](Cc3ccc(C)cc3)C(=O)N(C)CC(=O)N[C@@H](CCc3cc(F)c(C(F)(F)F)c(F)c3)C(=O)N2C1 [PP2233]
HRAS/KRAS (ratio of KD value with respect to HRAS to KD value with respect to KRAS) ([1]; SPR, GDP-bound HRAS wild-type vs GDP-bound KRAS wild-type): A (a compound having 10 or more and less than 20 is denoted as A) | NRAS/KRAS (ratio of KD value with respect to NRAS to KD value with respect to KRAS) ([2]; SPR, GDP-bound NRAS wild-type vs GDP-bound KRAS wild-type): A (a compound having 10 or more and less than 20 is denoted as A)

CCC[C@H]1C(=O)N[C@@H]([C@@H](C)CC)C(=O)N(C)CC(=O)N(C)[C@H]2C/C=C\CCN(C2=O)[C@@H](Cc2ccc(C)cc2)C(=O)N(C)CC(=O)N[C@@H](CCc2ccc(C(F)(F)F)c(OC)c2)C(=O)N2C[C@@H](C)C[C@H]2C(=O)NC2(CCC2)C(=O)N(C)[C@@H](C2CCCC2)C(=O)N(C)[C@H](C(=O)N(C)C)CC(=O)N1C [PP1857]
HRAS/KRAS (ratio of KD value for HRAS to KD value for KRAS) [1, 3]: B (a compound having 3 or more and less than 10 is denoted as B) | NRAS/KRAS (ratio of KD value for NRAS to KD value for KRAS) [2, 4]: A (a compound having 10 or more and less than 20 is denoted as A)

CCC[C@H]1C(=O)N[C@@H]([C@@H](C)CC)C(=O)N(C)CC(=O)N(C)[C@H]2C/C=C\CCN(C2=O)[C@@H](Cc2ccc(C(F)(F)F)cc2)C(=O)N(C)CC(=O)N[C@@H](CCc2ccc3c(C)c(C)n(C)c3c2)C(=O)N2C[C@H](OCC)C[C@H]2C(=O)NC2(CC(C)(C)C2)C(=O)N(C)[C@@H](C(CC)CC)C(=O)N(C)[C@H](C(=O)N(C)C)CC(=O)N1C [PP2904]
HRAS/KRAS (ratio of KD value with respect to GDP-bound HRAS wild-type protein to KD value with respect to KRAS) ([1]; class symbols): A (a compound having 10 or more and less than 20 is denoted as A) | NRAS/KRAS (ratio of KD value with respect to GDP-bound NRAS wild-type protein to KD value with respect to KRAS) ([2]; class symbols): AA (a compound having 20 or more is denoted as AA)

CCO[C@@H]1C[C@H]2C(=O)NC3(CCC3)C(=O)N(C)[C@@H](C3CCCC3)C(=O)N(C)[C@H](C(=O)N3CCOCC3)CC(=O)N(C)[C@@H](CC(C)C)C(=O)N[C@@H]([C@@H](C)CC)C(=O)N(C)CC(=O)N(C)[C@H]3CCCCCN(C3=O)[C@@H](Cc3ccc(F)c(Cl)c3)C(=O)N(C)CC(=O)N[C@@H](CCc3cc(F)c(C(F)(F)F)c(F)c3)C(=O)N2C1 [PP0919]
HRAS/KRAS (ratio of KD value with respect to HRAS to KD value with respect to KRAS) [1, 3]: B (a compound having 3 or more and less than 10 is denoted as B) | NRAS/KRAS (ratio of KD value with respect to NRAS to KD value with respect to KRAS) [2, 4]: B (a compound having 3 or more and less than 10 is denoted as B)

CCCN1C(=O)CN(C)C(=O)CN(C)C(=O)[C@H]([C@@H](C)CC)NC(=O)[C@H](CC(C)C)N(C)C(=O)C[C@@H](C(=O)N2CCOCC2)N(C)C(=O)[C@H](C2CCCC2)N(C)C(=O)C2(CCCC2)NC(=O)[C@@H]2C[C@H](C)CN2C(=O)[C@H](CCc2ccc(C(F)(F)F)c(Cl)c2)NC(=O)CN(C)C(=O)[C@@H]1Cc1ccc(C(F)(F)F)cc1 [PP0447] ([NMeL]I[Sar][Sar][NPrPhe(4-CF3)][Sar][hPhe(3-Cl-4-CF3)][Pro(4S-Me)][Ac5c][NMeGly(cPent)][NMeD]-Morpholide; lactam N-11)
HRAS/KRAS (ratio of KD value with respect to GDP-bound HRAS wild-type protein to KD value with respect to KRAS) ([1]; SPR): C (A compound having a KD ratio of 0.1 or more and less than 3 is denoted as C) | NRAS/KRAS (ratio of KD value with respect to GDP-bound NRAS wild-type protein to KD value with respect to KRAS) ([2]; SPR): B (a compound having 3 or more and less than 10 is denoted as B)

CCCN1C(=O)CN(C)C(=O)[C@@H]2CCN2C(=O)[C@H]([C@@H](C)CC)NC(=O)[C@H](CC(C)C)N(C)C(=O)C[C@@H](C(=O)N(C)C)NC(=O)[C@H](C2CCCC2)N(C)C(=O)C2(CCCC2)NC(=O)[C@@H]2C[C@@H](OCC)CN2C(=O)[C@H](CCc2ccc(C(F)(F)F)c(Cl)c2)NC(=O)CN(C)C(=O)[C@@H]1Cc1ccc(C(F)(F)F)cc1 [PP0377] ([NMeL]I[Aze][Sar][NPrPhe(4-CF3)][Sar][hPhe(3-Cl-4-CF3)][Hyp](Et)[Ac5c][NMeGly(cPent)]D-NMe2; lactam N-11)
HRAS/KRAS (ratio of KD for GDP-bound HRAS wild-type to KD for KRAS) ([1]; SPR): C (A compound having a KD ratio of 0.1 or more and less than 3 is denoted as C) | NRAS/KRAS (ratio of KD for GDP-bound NRAS wild-type to KD for KRAS) ([2]; SPR): B (a compound having 3 or more and less than 10 is denoted as B)

CC[C@H](C)[C@@H]1NC(=O)[C@H](CC(C)C)N(C)C(=O)C[C@@H](C(=O)N2CCOCC2)N(C)C(=O)[C@H](C2CCCC2)N(C)C(=O)C2(CCCC2)NC(=O)[C@@H]2CCCN2C(=O)[C@H](CCc2ccc(C(F)(F)F)c(Cl)c2)NC(=O)CN(C)C(=O)[C@H](Cc2ccc(F)cc2)N(C)C(=O)CN(C)C(=O)CN(C)C1=O [PP0212] ([NMeL]I[Sar][Sar][NMePhe(4-F)][Sar][hPhe(3-Cl-4-CF3)]P[Ac5c][NMeGly(cPent)][NMeD]-Morpholide; lactam N-11)
HRAS/KRAS (ratio of KD for GDP-bound HRAS wild-type to KD for KRAS) ([1]; SPR): C (A compound having a KD ratio of 0.1 or more and less than 3 is denoted as C) | NRAS/KRAS (ratio of KD for GDP-bound NRAS wild-type to KD for KRAS) ([2]; SPR): C (A compound having a KD ratio of 0.1 or more and less than 3 is denoted as C)
